Test results: US8729074B2, “Inhibitors of PI3 kinase” (Amgen Inc., priority 2009, dated 2014)

Key:
PI3Kα [1] = molecular target: T1, PI3Kα (Homo sapiens (Human), UniProt P42336); experiment: In vitro PI3K AlphaScreen assay; type: biochemical; conditions: average if run more than once
Protocol: In Vitro PI3K AlphaScreen® Assay
The PI3K AlphaScreen® assay (PerkinElmer, Waltham, Mass.) measures the activity of a panel of four phosphoinositide 3-kinases: PI3Kα, PI3Kβ, PI3Kγ, and PI3Kδ. Each of these enzymes phosphorylates the 3′-hydroxyl group on phosphatidylinositiol (4,5)-bisphosphate (PIP2) to produce phosphatidylinositol (3,4,5)-trisphosphate (PIP3). This phosphorylation activity is measured using a GST-tagged PIP3 binding protein (Echelon Biosciences, Salt Lake City, Utah), an anti-GST-tagged Acceptor bead, and streptavidin-Donor bead. […] In the absence of this interaction, proximity of the Donor and Acceptor beads is decreased, producing a loss of luminescent signal which is inversely proportional to PI3K activity.
The enzyme reaction buffer is made using sterile water (Baxter, Deerfield, Ill.) and 50 mM Tris HCl pH 7, 14 mM MgCl2, 2 mM sodium cholate, and 100 mM NaCl. 2 mM DTT is added fresh the day of the experiment. The AlphaScreen® reaction buffer is made using sterile water and 10 mM Tris HCl pH 7.5, 150 mM NaCl, 0.10% Tween 20, and 30 mM EDTA. 1 mM DTT is added fresh the day of the experiment.
The source plates for this assay are 384-well Greiner clear polypropylene plates containing test compounds at 5 mM and diluted 1:2 over 22 points. Columns 23 and 24 contain only DMSO as these are designated for positive and negative controls. Source plates are replicated into 384-well Optiplates (PerkinElmer, Waltham, Mass.), 0.5 μL/well, to make assay-ready plates.
The different PI3K isoforms are each diluted in enzyme reaction buffer to 2× working solutions. […] Two different 2× substrate solutions are made in enzyme reaction buffer. In one solution, PI(4,5)P2 (Echelon Biosciences, Salt Lake City, Utah) is diluted to 10 μM and ATP is diluted to 20 μM. This solution is used in the assays testing PI3Kα and PI3Kβ. In a second solution, PI(4,5)P2 is diluted to 10 μM and ATP is diluted to 8 μM. This solution is used in the assays testing PI3Kγ and PI3Kδ.
The AlphaScreen® reaction solutions are made using beads from the anti-GST AlphaScreen® kit (PerkinElmer, Waltham, Mass.). Two solutions are made in Alphascreen reaction buffer to 4× working concentrations. In one solution, biotinylated-IP4 (Echelon Biosciences, Salt Lake City, Utah) is diluted to 40 nM and streptavadin-Donor Beads are diluted to 80 μg/mL. In the second solution, PIP3-binding protein (Echelon Biosciences, Salt Lake City, Utah) is diluted to 40 nM and anti-GST-Acceptor Beads are diluted to 80 μg/mL. 10 μL/well of enzyme reaction buffer is added to Column 24 of the assay ready plates in place of enzyme. This is done for plates in the PI3Kα, β, and δ assays.
Using a 384-well dispensing Multidrop (Titertek, Huntsville, Ala.), 10 μL/well of 2× enzyme (PI3Kα, β, δ) is added to Columns 1-23 of the appropriate assay ready plates (for PI3Kγ 10 μL is added to Columns 1-24). 10 μL/well of the appropriate substrate solution (the solution with 20 μM ATP for PI3Kα and β assays, and the solution with […] for PI3Kγ and δ assays) is then added to Columns 1-24 of the plates. Plates are then incubated at room temperature for 20 minutes.
In the dark, 10 μL/well of the Donor Bead solution is added to Columns 1-24 of the plates to quench the enzyme reaction. The plates are incubated at room temperature for 30 minutes. Still in the dark, 10 μL/well of the Acceptor Bead solution is also added to Columns 1-24 of the plates. The plates are then incubated in the dark for 1.5 hours. The plates are read on an Envision Multilabel Plate Reader (PerkinElmer, Waltham, Mass.) with a 680 nm excitation filter and a 520-620 nm emission filter.
Activity data for the compounds tested in the assay is provided in Table 1 under the column heading PI3Kα AlphaScreen®.

PI3Kα [2] = molecular target: T1, PI3Kα; experiment: In vitro PI3 kinase enzyme assay (PI3K ATPLoss); type: biochemical; conditions: average if run more than once
Protocol: Recombinant Expression of PI3K Enzymes
Full length p110 subunits of PI3K α, β and δ, N-terminally labeled with polyHis tag, can be co-expressed with p85 with Baculo virus expression vectors in sf9 insect cells. P110/p85 heterodimers can be purified by sequential Ni-NTA, Q-HP, Superdex-100 chromatography. Purified α, β and δ isozymes can be stored at −20° C. in 20 mM Tris, pH 8, 0.2M NaCl, 50% glycerol, 5 mM DTT, 2 mM Na cholate. […] The γ isozyme can be purified by sequential Ni-NTA, Superdex-200, Q-HP chromatography. The γ isozyme can be stored frozen at −80° C. in NaH2PO4, pH 8, 0.2M NaCl, 1% ethylene glycol, 2 mM β-mercaptoethanol.
In Vitro PI3 Kinase Enzyme Assays (PI3K ATPLoss)
PI3K enzyme assays (alpha, beta, delta and gamma) can be performed in 25 μL with the above final concentrations of components in white polyproplyene plates. Phosphatidyl inositol phosphoacceptor, PtdIns(4,5)P2 (e.g., P4508) can be obtained from Echelon Biosciences, Salt Lake City, Utah. […] Test compounds can be dissolved in DMSO and diluted with three-fold serial dilutions. The compound in DMSO (1 μL) may be added per test well, and the inhibition relative to reactions containing no compound, with and without enzyme can be determined. After assay incubation at RT, the reaction can be stopped and residual ATP can be determined by addition of an equal volume of a commercial ATP bioluminescence kit (Perkin Elmer EasyLite, Perkin Elmer, Waltham, Mass.) according to the manufacturer's instructions, and detected using an Analyst GT luminometer.

[3] = tested on: phosphorylation of Akt at Serine 473 in U87 MG cells; experiment: pAkt AlphaScreen (U87 cell); type: cell-based; conditions: Homo sapiens, U-87 MG, 2 h; pAkt Ser473, U87 MG cells, compound two hours; average if run more than once
Protocol: pAkt AlphaScreen (U87 Cell)
The pAkt AlphaScreen® assay (PerkinElmer, Waltham, Mass.) determines whether there is phosphorylation of Akt at Serine 473 by recruitment of a phosphospecific antibody. This assay was performed using U87 MG cells. The U87 growth media consists of MEM (Gibco, Carlsbad, Calif.) supplemented with 10% FBS (Gibco), 1× Non-Essential Amino Acids (Gibco) and 1× Penicillin/Streptomycin/Glutamine (Gibco). The cells were maintained weekly using 0.05% Trypsin (Gibco) and replated in 150 mm TC—Treated Culture Dishes (Corning, Corning, N.Y.).
The first day of the assay, the adherent cells were trypsinized, media was added to the loose cells and cells were mixed to a homogenous mixture. 0.5 ml of the homogenous mixture was counted on the Beckman Coulter® Vi-CELL™ XR (Fullerton, Calif.). 50 frames of cells were counted and the number of viable cells was determined. The cells were then diluted to 0.25 million cells per ml, and centrifuged at 200 rcf for 5 minutes. The media was removed and the cells were reconstituted in fresh media for plating. The cells were plated at 20 μl per well on the PerkinElmer® Flexprop PLUS in Low Volume 384 Well White Tissue Culture Plates (Corning) with a final cell density of 5K cells per well. The plates were incubated overnight at 37° Celsius, 5% CO2.
On the second day, the compound plates were prepared, the cells were treated with compound and the pAkt reaction mix was added to the cell lysate. 384 well compound plates were prepared containing 1 μl of compound per well starting at 5 mM and diluted 1:2 across the row, resulting in a 22 well serial dilution. 39 μl of growth media was added to the compound plate in rows 1-22 using the PerkinElmer® Flexprop PLUS resulting in a DMSO concentration of 2.5%. The cell plates and diluted compound plates were put onto the VELOCITY11™ VPREP™ 384 ST where the compound plate was mixed and 5 μl of serially diluted compound or controls was added to the cell plate. The final concentration of the compounds was 25 μM serially diluted to 11.9 pM in 0.5% DMSO. The cell plates were then incubated with compound for two hours at 37° Celsius, 5% CO2. After two hours, the media in the cell plates was aspirated using the BioTek® ELx405HT plate washer (Winooski, Vt.) removing the majority of media and compound without disturbing the adherent U87 cells. The following assay reagents are components of the SureFire® Akt (Ser 473) Phosphorylation 50K Point Kit (TGR BioSciences, Adelaide, Australia) and an IgG Detection Kit (PerkinElmer, Waltham, Mass.). 5 μl of 1× Lysis Buffer was added to each well using the PerkinElmer® Flexprop PLUS. The plates were then incubated at room temperature on a shaker for ten minutes. The AlphaScreen® reaction was prepared under low light conditions (subdued or green light) including p-Akt (Ser 473) Reaction Buffer, Dilution Buffer, Activation Buffer, Acceptor Beads and Donor Beads at a ratio of 40:20:10:1:1 respectively. The AlphaScreen® reaction was added to the cell lysate at 6 μl per well using the PerkinElmer® Flexprop PLUS. The plates were placed in a humid environment to reduce edge effects and incubated overnight at room temperature with restricted air flow in the dark.
On the final day of the experiment, the plates were read on the PerkinElmer® EnVision™ 2103 Multilable Reader using the standard AlphaScreen® readout. The POC is calculated and the data is analyzed to report the IC50 IP for pAkt at Serine 473.
Activity data for the compounds tested in the PI3K cell based Akt assay is provided in Table 1 under the column heading U87

mTOR = mTOR (Homo sapiens (Human), UniProt P42345); experiment: In vitro mTOR Lanthascreen assay; type: biochemical; conditions: average if run more than once
Chain of mTOR (P42345 1360-2549): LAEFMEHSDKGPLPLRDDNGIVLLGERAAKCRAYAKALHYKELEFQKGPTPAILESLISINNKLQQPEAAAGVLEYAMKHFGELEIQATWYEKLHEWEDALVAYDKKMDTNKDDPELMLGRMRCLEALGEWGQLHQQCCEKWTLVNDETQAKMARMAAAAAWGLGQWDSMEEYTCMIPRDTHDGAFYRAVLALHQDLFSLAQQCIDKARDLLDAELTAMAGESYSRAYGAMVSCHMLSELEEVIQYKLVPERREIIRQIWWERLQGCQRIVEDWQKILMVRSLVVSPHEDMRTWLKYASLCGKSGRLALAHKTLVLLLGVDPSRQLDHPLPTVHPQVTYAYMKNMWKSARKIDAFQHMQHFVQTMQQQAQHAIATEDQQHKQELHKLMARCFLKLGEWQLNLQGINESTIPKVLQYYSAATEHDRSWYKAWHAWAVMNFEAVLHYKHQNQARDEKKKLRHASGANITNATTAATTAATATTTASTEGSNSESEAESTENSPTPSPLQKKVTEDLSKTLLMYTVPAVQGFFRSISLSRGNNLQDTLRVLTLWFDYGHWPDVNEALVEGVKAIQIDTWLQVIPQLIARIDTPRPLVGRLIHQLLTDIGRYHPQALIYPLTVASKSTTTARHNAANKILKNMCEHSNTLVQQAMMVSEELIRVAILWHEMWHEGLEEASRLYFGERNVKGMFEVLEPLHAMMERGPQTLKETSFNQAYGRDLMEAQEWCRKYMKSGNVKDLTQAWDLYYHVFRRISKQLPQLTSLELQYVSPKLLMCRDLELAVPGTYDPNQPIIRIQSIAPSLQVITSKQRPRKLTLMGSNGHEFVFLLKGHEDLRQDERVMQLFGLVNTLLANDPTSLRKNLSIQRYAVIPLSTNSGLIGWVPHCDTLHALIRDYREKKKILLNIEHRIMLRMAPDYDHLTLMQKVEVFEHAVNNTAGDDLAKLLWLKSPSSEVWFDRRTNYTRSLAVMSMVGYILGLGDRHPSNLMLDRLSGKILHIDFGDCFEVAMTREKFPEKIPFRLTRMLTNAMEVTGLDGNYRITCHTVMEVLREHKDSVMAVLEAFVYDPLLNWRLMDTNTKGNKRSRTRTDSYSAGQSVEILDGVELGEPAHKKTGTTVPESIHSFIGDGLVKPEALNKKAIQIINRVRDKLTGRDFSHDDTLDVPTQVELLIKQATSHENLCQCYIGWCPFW
Excerpt: The Invitrogen (Carlsbad, Calif.) mammalian target of rapamycin (mTOR) Lanthascreen assay can be used to quantitate mTOR kinase activity in an in vitro setting. Active mTOR phosphorylates eukaryotic translation initiation factor 4E binding protein 1 (4E-BP1) on residue threonine 46. This phosphorylation event can be detected with a phospho-specific terbium (Tb) labeled Ab, in turn bringing the Tb label in close proximity to the GFP tagged 4E-BP 1 and allowing for time-resolved fluorescence resonance energy transfer (TR-FRET), which correlates 4E-BP1 phosphorylation levels with mTOR kinase activity.
Enzyme reaction buffer can be prepared in deionized water containing 50 mM HEPES (pH 7.5), 0.01% Polysorbate 20, 1 mM EGTA, and 10 mM MnCl2.
Dilutions of the compound to be tested can be prepared in 96-well polypropylene plates (Fisher Scientific, Waltham, Mass.). One row represents a 10-point dose of compound diluted 1:3 in enzyme reaction buffer and 20% dimethyl sulfoxide (DMSO). The top concentration for all compounds is 36 μM. Wells 6 and 12 can serve as the no compound (DMSO only) and high compound controls.
An mTOR substrate solution can prepared in enzyme reaction buffer containing 1600 nM green fluorescent protein tagged eukaryotic translation initiation factor 4E binding protein 1 (GFP-4E-BP1) (Invitrogen, Carlsbad, Calif.) and 28 uM adenosine triphosphate (ATP) (Calbiochem, Gibbstown, N.J.).
mTOR enzyme (Invitrogen, Carlsbad, Calif.) can be diluted in enzyme reaction buffer to a working concentration of 100 ng/mL.
The enzyme assay can be run in 384 well low volume assay plates (Corning, Corning, N.Y.). 2.5 uL of substrate solution containing GFP-4E-BP1 and ATP can be added to appropriate wells in the assay plate followed by 2.5 μL of compound dilutions. 5 μL of appropriately diluted mTOR enzyme can be added and the reaction allowed to proceed for 1 hour at room temperature. Final reagent concentrations in the enzyme assay are 50 ng/mL mTOR, 400 nM GFP-4E-BP1, and 7 μM ATP.
The enzyme assay can be terminated upon the addition of 10 μL of 20 mM EDTA and 4 nM Tb-labeled anti-phospho-4E-BP1 [T46] antibody (Invitrogen, Carlsbad, Calif.). The assay plate can then be incubated at room temperature for 1 hour and results read on a Tecan Safire II plate reader (Tecan, Männedorf, Switzerland).

T1 sequence (P42336 whole entry): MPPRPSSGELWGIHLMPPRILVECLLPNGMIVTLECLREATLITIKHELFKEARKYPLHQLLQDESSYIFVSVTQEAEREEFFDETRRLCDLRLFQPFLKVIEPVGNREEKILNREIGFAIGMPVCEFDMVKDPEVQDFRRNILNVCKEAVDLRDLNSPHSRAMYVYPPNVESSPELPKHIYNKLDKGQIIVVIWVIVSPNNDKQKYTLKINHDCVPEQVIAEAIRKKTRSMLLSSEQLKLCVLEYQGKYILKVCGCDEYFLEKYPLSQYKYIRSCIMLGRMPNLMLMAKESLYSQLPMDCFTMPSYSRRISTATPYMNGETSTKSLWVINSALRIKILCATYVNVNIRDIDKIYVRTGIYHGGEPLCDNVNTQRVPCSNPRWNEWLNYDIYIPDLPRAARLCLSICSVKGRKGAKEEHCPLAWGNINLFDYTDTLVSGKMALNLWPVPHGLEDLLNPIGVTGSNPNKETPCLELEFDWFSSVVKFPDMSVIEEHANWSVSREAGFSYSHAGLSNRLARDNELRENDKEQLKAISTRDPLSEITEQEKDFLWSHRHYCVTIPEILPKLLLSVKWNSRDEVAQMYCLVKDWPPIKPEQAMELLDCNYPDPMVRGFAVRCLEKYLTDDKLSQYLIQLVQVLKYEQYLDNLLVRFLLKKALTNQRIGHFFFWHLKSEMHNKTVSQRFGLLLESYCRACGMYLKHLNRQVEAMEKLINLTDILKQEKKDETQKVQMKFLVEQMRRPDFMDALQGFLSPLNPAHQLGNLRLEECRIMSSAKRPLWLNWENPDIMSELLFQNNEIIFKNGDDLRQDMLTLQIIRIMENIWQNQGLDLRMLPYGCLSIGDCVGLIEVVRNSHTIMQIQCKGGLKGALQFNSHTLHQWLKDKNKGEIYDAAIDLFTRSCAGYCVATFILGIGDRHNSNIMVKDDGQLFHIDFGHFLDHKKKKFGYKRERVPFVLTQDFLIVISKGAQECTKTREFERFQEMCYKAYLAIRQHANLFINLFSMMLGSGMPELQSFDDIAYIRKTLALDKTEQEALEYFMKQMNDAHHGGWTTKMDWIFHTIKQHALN
T1 sequence (P27986 whole entry partner): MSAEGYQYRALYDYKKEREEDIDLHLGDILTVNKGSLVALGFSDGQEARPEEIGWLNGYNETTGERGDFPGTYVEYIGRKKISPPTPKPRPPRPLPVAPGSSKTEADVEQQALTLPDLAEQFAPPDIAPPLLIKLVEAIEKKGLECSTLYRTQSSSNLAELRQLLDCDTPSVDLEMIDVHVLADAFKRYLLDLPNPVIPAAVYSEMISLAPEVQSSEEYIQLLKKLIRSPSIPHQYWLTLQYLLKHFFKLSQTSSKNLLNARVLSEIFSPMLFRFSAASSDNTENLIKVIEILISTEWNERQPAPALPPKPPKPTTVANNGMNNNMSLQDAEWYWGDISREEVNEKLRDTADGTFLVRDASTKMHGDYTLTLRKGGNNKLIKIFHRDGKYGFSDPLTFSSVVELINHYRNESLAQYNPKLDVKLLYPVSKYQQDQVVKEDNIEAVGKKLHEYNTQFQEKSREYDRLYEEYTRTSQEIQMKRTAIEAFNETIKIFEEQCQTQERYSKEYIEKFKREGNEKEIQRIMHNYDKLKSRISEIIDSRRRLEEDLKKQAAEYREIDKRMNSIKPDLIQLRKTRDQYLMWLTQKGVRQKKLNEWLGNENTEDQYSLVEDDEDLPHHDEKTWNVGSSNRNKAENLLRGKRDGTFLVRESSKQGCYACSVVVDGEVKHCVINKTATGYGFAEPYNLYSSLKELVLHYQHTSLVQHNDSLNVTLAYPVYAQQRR

Work on `O=S(=O)(Nc1cncc(-c2cnc3ccccn23)c1)c1ccc(F)cc1` [Example 2, 4-Fluoro-N-(5-imidazo[1,2-a]pyridin-3-yl-3-pyridinyl)benzenesulfonamide] yielded a Ki (PI3Kα [1]) of 1290 nM and an IC50 (PI3Kα [2]) of 931 nM.

In the case of `COc1cc(-c2cnc3ccc(N4C(=O)OC[C@H]4Cc4ccccc4)cn23)cnc1OC` [Example 14, (4R)-4-Benzyl-3-(3-(5,6-dimethoxy-3-pyridinyl)imidazo[1,2-a]pyridin-6-yl)-1,3-oxazolidin-2-one], the IC50 [3] is reported as 6970 nM and the Ki (PI3Kα [1]) is reported as 268 nM.

With `COc1cc(-c2cnc3ccc(N4C(=O)OC[C@@H]4Cc4ccccc4)cn23)cnc1OC` [Example 15, (4S)-4-Benzyl-3-(3-(5,6-dimethoxy-3-pyridinyl)imidazo[1,2-a]pyridin-6-yl)-1,3-oxazolidin-2-one] the IC50 [3] was 6620 nM and the Ki (PI3Kα [1]) was 286 nM.

In the case of `O=c1n(Cc2ccccc2)ccc2ncc(-c3cnc(Cl)c(NS(=O)(=O)c4ccc(F)cc4)c3)n12` [Example 17, N-(5-(6-Benzyl-5-oxo-5,6-dihydroimidazo[1,2-c]pyrimidin-3-yl)-2-chloropyridin-3-yl)-4-fluorobenzenesulfonamide], the IC50 (mTOR) is reported as 180 nM and the Ki (PI3Kα [1]) is reported as 465 nM.

`O=S(=O)(Nc1cc(-c2cnc3ncccn23)cnc1Cl)c1ccc(F)cc1` [Example 24, N-(2-Chloro-5-(imidazo[1,2-a]pyrimidin-3-yl)pyridin-3-yl)-4-fluorobenzenesulfonamide] was tested, and the IC50 (mTOR) was > 50000 nM, the Ki (PI3Kα [1]) was 378 nM and the IC50 (PI3Kα [2]) was 781 nM.
